Values quoted from earlier work in patent US6825217B2, “Carbinols for the treatment of neuropathic dysfunction” (Endo Pharmaceuticals, Inc., priority 2001, dated 2004).

Details: rat, in vivo; cited from earlier work

## CSCC[C@@H]1NC(=O)[C@H](CC(C)C)NC(=O)[C@H](CCCNC(=N)N)NC(=O)[C@H](CO)NC(=O)[C@@H]2CSSC[C@@H]3NC(=O)[C@H](CO)NC(=O)CNC(=O)[C@H]([C@@H](C)O)NC(=O)[C@H](CSSC[C@H](N)C(=O)N[C@@H](CCCCN)C(=O)NCC(=O)N[C@@H](CCCCN)C(=O)NCC(=O)N[C@@H](C)C(=O)N[C@@H](CCCCN)C(=O)N2)NC(=O)[C@H](CSSC[C@@H](C(N)=O)NC(=O)[C@H](CCCCN)NC(=O)CNC(=O)[C@H](CO)NC(=O)[C@H](CCCNC(=N)N)NC3=O)NC(=O)[C@H](CC(=O)O)NC(=O)[C@H](Cc2ccc(O)cc2)NC1=O [SNX-111]
  duration of reduction of heat hyperalgesia and mechanical allodynia: at least three hours
  heat hyperalgesia: reduced
  mechanical allodynia: reduced
  mechanical hyperalgesia: no effect
  responses to sensory stimuli, thermal or mechanical: no effect
